The compounds below were run on HIV (assay: Assay for inhibition of HIV replication (spread assay): acute HIV infection of T-lymphoid cells). Settings: Human immunodeficiency virus 1, 'less than about'.
Type: cell-based
Description: Assays for the inhibition of acute HIV infection of T-lymphoid cells were conducted in accordance with Vacca, J. P. et al., Proc. Natl. Acad. Set USA 1994, 91: 4096. […] For example, the compounds of Examples 1 to 64 were tested in this assay and found to have IC95 values of less than about 10 micromolar.

Question: How did the IC95 turn out when `CN1CCC[C@H](CO)n2c(c3c(c(O)c2=O)C(=O)N(Cc2ccc(F)cc2)CC3)C1=O` [Example 48, (6R) 11-(4-Fluorobenzyl)-9-hydroxy-6-(hydroxymethyl)-2-methyl-3,4,5,6,12,13-hexahydro-2H-[1,4]diazocino[2,1-a]2,6-naphthyridine-1,8,10(11H)-trione] was run?
Answer: Its IC95 is < 10 µM.

Question: `CC1(C)C(=O)N(CCCO)c2c3c(c(O)c(=O)n21)C(=O)N(Cc1ccc(F)c(Cl)c1)CC3` [Example 55, 8-(3-Chloro-4-fluorobenzyl)-6-hydroxy-1-(3-hydroxypropyl)-3,3-dimethyl-1,8,9,10-tetrahydroimidazo[2,1-a]-2,6-naphthyridine-2,5,7(3H)-trione] was tested. Which IC95 did it give?
Answer: Its IC95 is < 10 µM.

Question: For `CC1CCCN(C)C(=O)c2c3c(c(O)c(=O)n21)C(=O)N(Cc1ccc(F)c(Cl)c1)CC3` (stereo not shown) [Example 28, 11-(3-Chloro-4-fluorobenzyl)-9-hydroxy-2,6-dimethyl-3,4,5,6,12,13-hexahydro-2H[1,4]diazocino[2,1-a]2,6-naphthyridine-1,8,10(11H)-trione], which IC95 is on record?
Answer: Its IC95 is < 10 µM.

Question: How did the IC95 turn out when `O=C1NCCCn2c1c1c(c(O)c2=O)C(=O)N(Cc2ccc(F)c(Cl)c2)CC1` [Example 4, 10-(3-Chloro-4-fluorobenzyl)-8-hydroxy-2,3,4,5,11,12-hexahydro[1,4]diazepino[2,1-a]-2,6-naphthyridine-1,7,9(10H)-trione] was run?
Answer: The IC95 was < 10 µM.

Question: How did the IC95 turn out when `CC1CCCN(CCN2CCCCC2)C(=O)c2c3c(c(O)c(=O)n21)C(=O)N(Cc1ccc(F)c(Cl)c1)CC3` (stereo not shown) [Example 33, 11-(3-Chloro-4-fluorobenzyl)-9-hydroxy-2-(2-piperidinyl-1-ylethyl)-6-methyl-3,4,5,6,12,13-hexahydro-2H[1,4]diazocino[2,1-a]-2,6-naphthyridine-1,8,10(11H)-trione] was run?
Answer: The IC95 was < 10 µM.

Question: How did the IC95 turn out when `CC1(CCO)C(=O)N(CCO)c2c3c(c(O)c(=O)n21)C(=O)N(Cc1ccc(F)c(Cl)c1)CC3` (stereo not shown) [Example 60, 8-(3-Chloro-4-fluorobenzyl)-6-hydroxy-1,3-bis(2-hydroxyethyl)-3-methyl-1,8,9,10-tetrahydroimidazo[2,1-a]-2,6-naphthyridine-2,5,7(3H)-trione] was run?
Answer: Its IC95 is < 10 µM.

Question: How did the IC95 turn out when `CN1CC(O)C(C)(C)Cn2c(c3c(c(O)c2=O)C(=O)N(Cc2ccc(F)c(Cl)c2)CC3)C1=O` (racemic) [Example 40, (4R/S)-11-(3-Chloro-4-fluorobenzyl)-4,9-dihydroxy-2,5,5-trimethyl-3,4,5,6,12,13-hexahydro-2H[1,4]diazocino[2,1-a]-2,6-naphthyridine-1,8,10(11H)-trione] was run?
Answer: The IC95 was < 10 µM.

Question: With `CC1CCCN(CCN2CCOCC2)C(=O)c2c3c(c(O)c(=O)n21)C(=O)N(Cc1ccc(F)c(Cl)c1)CC3` (stereo not shown) [Example 32, 11-(3-Chloro-4-fluorobenzyl)-9-hydroxy-2-(2-morpholin-4-ylethyl)-6-methyl-3,4,5,6,12,13-hexahydro-2H[1,4]diazocino[2,1-a]-2,6-naphthyridine-1,8,10(11H)-trione] as the compound, how does the IC95 read?
Answer: Its IC95 is < 10 µM.

Question: With `CN1CCn2c(c3c(c(O)c2=O)C(=O)N(Cc2ccc(F)c(Cl)c2)CC3)C1=O` [Example 6, 9-(3-Chloro-4-fluorobenzyl)-7-hydroxy-2-methyl-3,4,10,11-tetrahydro-2H-pyrazino[2,1-a]-2,6-naphthyridine-1,6,8(9H)-trione] as the compound, how does the IC95 read?
Answer: The IC95 was < 10 µM.

Question: `CC(=O)NCCN1CCCCn2c(c3c(c(O)c2=O)C(=O)N(Cc2ccc(F)c(Cl)c2)CC3)C1=O` [Example 20, 11-(3-Chloro-4-fluorobenzyl)-9-hydroxy-2-[2-(acetylamino)ethyl]-3,4,5,6,12,13-hexahydro-2H[1,4]diazocino[2,1-a]-2,6-naphthyridine-1,8,10(11H)-trione] was tested. Which IC95 did it give?
Answer: Its IC95 is < 10 µM.
